Columns and labels:
microglia and astrocytes = experiment: Example 2: microglia and astrocyte activation at cannula penetration site after icv STZ; format: in vivo, Sprague-Dawley rats
Description: (§1) Male Sprague-Dawley rats (63) weighing 320-340 g, aged 4 months, were anesthetized by an intraperitoneal injection of Equithesin 0.3 ml/kg. STZ (0.5 mg) dissolved in 2 μl artificial cerebrospinal fluid (CSF) was injected into each lateral ventricle of 45 rats. The stereotaxic co-ordinates for icv injection were: 0.9 mm posterior, 1.8 mm lateral and 3.8 mm ventral from the bregma level. Control rats (18) received a bilateral injection of 2 μl artificial CSF. STZ-injected rats (25) were given ladostigil (1 mg/kg of the hemitartrate salt/day) orally in a volume of (1 ml/kg) from one week before, until 1 or 8 weeks after icv STZ. The remaining 20 rats received 1 ml/kg water. The rats were housed two per cage with free access to food and water until the behavioral, enzymatic and cytochemical measurements were completed.
One week after icv injection, 8 rats injected with icv CSF, 7 rats given STZ alone, and 7 treated with ladostigil were anesthetized with sodium pentobarbitone, perfused transcardially and the brains processed for immunocytochemistry. […]
Nitrotyrosine, (NT) a marker of nitrative/oxidative stress, was stained with rabbit anti-nitrotyrosine from Upstate (Lake Placid, N.Y., USA), diluted 1:100 followed by the secondary donkey anti-rabbit conjugated with horseradish peroxidase from Chemicon (Temecula, Calif., USA), was diluted 1:200. […] Images were obtained by bright field microscopy and quantitative assessments of appropriate markers were made using AnalySIS software. […]
Three distinct zones were distinguished in the vicinity of the cortical injection site after icv STZ injection containing astrocytes and microglia with differing morphology. Quantification of microglia and astrocytes in the three zones was made in sections sampled in a range of P0.2-0.8 mm from the bregma. The area of each zone containing the different types of astrocytes was measured and the percentage that each zone occupied in the wound area was calculated (Statistica software, StatSoft, USA). The classes of microglia were counted separately in each zone. […]

[1] = system: rats injected icv with STZ (episodic memory); experiment: Object recognition test after icv STZ; format: in vivo, Sprague-Dawley rats; settings: for Effect on the deficit in episodic memory: four weeks after icv STZ
Description: as §1, with “STZ-injected rats (25) were given ladostigil (1 mg/kg of the hemitartrate salt/day) orally in a volume of (1 ml/kg) from one week before, until 1 or 8 weeks after icv STZ.” left out
Episodic memory in the object recognition test was still intact 2 but not 4 weeks after a single icv STZ injection (Table 3). Therefore, rats that were treated with ladostigil or water were tested for object and place recognition 4 weeks after icv injection of STZ or CSF. The object recognition test measured non-spatial working memory with characteristics of episodic memory that is primarily affected in senile dementia (Bartolini et al., Aniracetam restores object recognition impaired by age, scopolamine, and nucleus basalis lesions, Pharmacol. Biochem. Behav. (1996) 53:277-83). The test depended on intact cortical and hippocampal function (Winters et al., Double dissociation between the effects of peri-postrhinal cortex and hippocampal lesions on tests of object recognition and spatial memory: heterogeneity of function within the temporal lobe, J. Neuroscience (2004) 24:5901-8), while place recognition, another manifestation of spatial memory, was dependent on intact hippocampal function. The experiments were carried out as previously described in Mumby et al., Hippocampal damage and exploratory preferences in rats: memory for objects, places, and contexts, Learning Memory (2002) 9:49-57, in a box made of dark Perspex (60×60 cm and 50 cm high), covered with a dark Perspex lid. In order to increase their interest in the objects, rats were familiarized with the test arena by placing them in it for 5 min on each of 3 successive days and the object recognition test performed on the 4th day. Two identical objects were placed in the arena and the time taken by the rats to explore each object during a period of 3 min was recorded. One hour later, the objects were replaced by one that was identical to the two used in the first test and a second one that was different from them and the time taken to explore each of them was again recorded. The following day, the place recognition test was carried out with two identical objects as described above but different from those used previously. One hour later, the one of the two objects was moved to another position in the arena as described in Mumby et al., supra.
Group means of 3 measures in the object and place recognition tests, duration of exploration in first and second phases and discrimination index were submitted to one way ANOVA. Mean daily escape latencies for trial 1 and trial 2 in the MWM in each group were analyzed by repeated measures ANOVA for DAY and GROUP followed by Duncan's post hoc test where appropriate. Histological data were analyzed by univariate ANOVA followed by Duncan's post hoc test. All values represent means±SEM.

## C#CCN[C@@H]1CCc2ccc(OC(=O)N(C)CC)cc21 [ladostigil, R(+)-6-(N-methyl,N-ethyl-carbamoyloxy)-N′-propargyl-1-aminoindan]
Microglia and astrocytes; 1 mg/kg/day hemitartrate orally, seven days after icv STZ
  Changes in microglia and astrocytes in zones i) and iii) resulting from icv STZ: prevented the changes
Microglia and astrocytes; 1 mg/kg/day orally, seven days after icv STZ
  Density of fibrous microglia in zone ii): no effect
Microglia and astrocytes; eight weeks after icv STZ, with or without ladostigil
  Scar morphology at cannula penetration site: No differences
[1]; 17 mg/kg single dose, two days later when ChE was no longer inhibited
  Deficit in episodic memory two days after dose: returned two days later
[1]; STZ (4 weeks) + 17 mg/kg acute
  Discrimination index, Object: 0.348 ± 0.112
[1]; STZ (4 weeks) + 17 mg/kg acute, two days later
  Discrimination index, Object: −0.112 ± 0.08
[1]; STZ (4 weeks) + ladostigil 1 mg/kg acute
  Discrimination index, Object: 0.010 ± 0.08
[1]; STZ (4 weeks) + ladostigil 1 mg/kg chronic, mean ± s.e.m.
  Discrimination index, Object: 0.238 ± 0.05
[1]; icv STZ with chronic ladostigil, significantly >0, P<0.05
  Discrimination in object recognition test: significant discrimination index
[1]; single dose 17 mg/kg
  Effect on the deficit in episodic memory: the memory deficit was abolished
[1]; single dose of 1 mg/kg
  Effect on the deficit in episodic memory: no effect

— patent US8420696B2, “Use of low-dose ladostigil for neuroprotection” (priority 2005, dated 2013)
